In patent US20260297070A1, “CYCLIC [COMPOUND LEFT OUT] WRN INHIBITORS” (Nimbus Wadjet, Inc., priority 2023, published 2026):

Each molecule was assayed against T1, human Werner helicase (WRN-BV08, Uniprot Q14191, amino acids 517-1235 with L1074F point mutation) (Homo sapiens, UniProt Q14191, L1074F) (assay: WRN (BV08) ADP-Glo Assay). Conditions: 0.15 nM WRN, 5 μM ATP, 0.1 nM DNA duplex, 15 min preincubation, 60 min at 25° C., pH 7.5, 1% DMSO; read-out: ADP-Glo_hWRN_IC50.
T1 construct: Uniprot Q14191, amino acids 517-1235 with L1074F point mutation; TEV-cleavable 8×His (C, cleaved yes); made in house; host or cells: Sf9 insect cells (baculovirus)
T1 sequence (Q14191 with tags, fused parts or gaps L1074F limits assumed): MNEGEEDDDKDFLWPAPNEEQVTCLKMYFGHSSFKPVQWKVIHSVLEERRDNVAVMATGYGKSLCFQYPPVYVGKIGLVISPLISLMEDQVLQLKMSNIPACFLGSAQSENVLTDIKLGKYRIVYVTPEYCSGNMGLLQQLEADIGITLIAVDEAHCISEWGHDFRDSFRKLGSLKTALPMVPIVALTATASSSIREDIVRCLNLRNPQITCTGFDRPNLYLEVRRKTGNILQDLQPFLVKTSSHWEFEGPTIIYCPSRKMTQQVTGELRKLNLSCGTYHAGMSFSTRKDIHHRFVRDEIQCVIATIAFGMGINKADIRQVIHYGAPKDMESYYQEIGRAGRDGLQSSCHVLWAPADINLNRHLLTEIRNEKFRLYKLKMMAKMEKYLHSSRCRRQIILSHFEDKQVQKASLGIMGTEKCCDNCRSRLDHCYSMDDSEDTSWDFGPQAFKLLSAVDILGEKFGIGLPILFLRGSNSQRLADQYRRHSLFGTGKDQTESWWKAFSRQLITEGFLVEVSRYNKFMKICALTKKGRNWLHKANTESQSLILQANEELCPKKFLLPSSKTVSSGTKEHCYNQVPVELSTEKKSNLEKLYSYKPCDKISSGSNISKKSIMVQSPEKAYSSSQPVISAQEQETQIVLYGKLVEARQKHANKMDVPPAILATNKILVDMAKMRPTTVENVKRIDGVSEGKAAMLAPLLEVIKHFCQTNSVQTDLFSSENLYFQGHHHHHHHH
Format: biochemical
Method in brief: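 0.15 nM WRN (aa 517-1235, L1074F, Sf9-expressed, tag cleaved) preincubated 15 min at 25 °C with compound, then 5 μM ATP and 0.1 nM DNA duplex added for 60 min. Buffer: 20 mM Bicine pH 7.5, 1 mM MgCl2, 10 mM KCl, 1 mM TCEP; 1% DMSO. ADP-Glo luminescence; IC50 by 4-parameter fit.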

Row | SMILES | IC50 [µM]
1 | COc1cc(CN(C(=O)C2CCc3c([nH]c4cccc(Cl)c34)C2)[C@@H]2C=CS(=O)(=O)C2)ccn1 (stereo partly drawn) [I-785, 5-chloro-N-[(3R)-1,1-dioxo-2,3-dihydro-1lambda6-thiophen-3-yl]-N-[(2-methoxypyridin-4-yl)methyl]-2,3,4,9-tetrahydro-1H-carbazole-2-carboxamide] | > 50
2 | CS(=O)(=O)c1ccc(CN(C(=O)Cc2ccc(-n3cccc3)cc2)C2C=CS(=O)(=O)C2)cc1 (stereo not drawn) [I-256, N-(1,1-dioxo-2,3-dihydro-1lambda6-thiophen-3-yl)-N-[(4-methanesulfonylphenyl)methyl]-2-[4-(1H-pyrrol-1-yl)phenyl]acetamide] | 5 to 10
3 | O=C(C1C2CCC1C2)N(Cc1ccncc1)C1C=CS(=O)(=O)C1 (stereo not drawn) [I-619, N-(1,1-dioxo-2,3-dihydro-1lambda6-thiophen-3-yl)-N-[(pyridin-4-yl)methyl]bicyclo[2.1.1]hexane-5-carboxamide] | > 50
4 | Cc1cnn(CC(=O)N(Cc2ccncc2)C2C=CS(=O)(=O)C2)c1 (stereo not drawn) [I-436, N-(1,1-dioxo-2,3-dihydro-1lambda6-thiophen-3-yl)-2-(4-methyl-1H-pyrazol-1-yl)-N-[(pyridin-4-yl)methyl]acetamide] | > 50
5 | O=C(Cc1ccc(-n2cccc2)cc1)N(Cc1nc2c(s1)CCC2)C1C=CS(=O)(=O)C1 (stereo not drawn) [I-155, N-({4H,5H,6H-cyclopenta[d][1,3]thiazol-2-yl}methyl)-N-(1,1-dioxo-2,3-dihydro-1lambda6-thiophen-3-yl)-2-[4-(1H-pyrrol-1-yl)phenyl]acetamide] | 0.5 to 5
6 | COc1cc(CN(C(=O)Cc2ccc(C(C)(F)F)cc2)C2C=CS(=O)(=O)C2)ccn1 (stereo not drawn) [I-117, 2-[4-(1,1-difluoroethyl)phenyl]-N-(1,1-dioxo-2,3-dihydro-1lambda6-thiophen-3-yl)-N-[(2-methoxypyridin-4-yl)methyl]acetamide] | 0.5 to 5
7 | O=C(C1CCCN(c2ccccc2)C1)N(Cc1ccncc1)C1C=CS(=O)(=O)C1 (stereo not drawn) [I-539, N-(1,1-dioxo-2,3-dihydro-1lambda6-thiophen-3-yl)-1-phenyl-N-[(pyridin-4-yl)methyl]piperidine-3-carboxamide] | > 50
8 | CC(C)c1ccc(CC(=O)N(Cc2ccnc(C(C)(C)O)c2)C2C=CS(=O)(=O)C2)cc1 (stereo not drawn) [I-123, N-(1,1-dioxo-2,3-dihydro-1lambda6-thiophen-3-yl)-N-{[2-(2-hydroxypropan-2-yl)pyridin-4-yl]methyl}-2-[4-(propan-2-yl)phenyl]acetamide] | 0.5 to 5
9 | COc1cc(CN(C(=O)C(c2ccc(-c3ccc(F)c(F)c3)cc2F)n2cc(C#N)cn2)[C@@H]2C=CS(=O)(=O)C2)ccn1 (single isomer, unassigned) [I-703, (2R*)-2-(4-cyano-1H-pyrazol-1-yl)-N-[(3R)-1,1-dioxo-2,3-dihydro-1lambda6-thiophen-3-yl]-N-[(2-methoxypyridin-4-yl)methyl]-2-{3,3′,4′-trifluoro-[1,1′-biphenyl]-4-yl}acetamide] | < 0.5
10 | O=C(Cc1ccc(S(F)(F)(F)(F)F)cc1)N(Cc1nc(C2CC2)cs1)C1C=CS(=O)(=O)C1 (single isomer, unassigned) [I-4] | < 0.5
11 | COCC(C(=O)N(Cc1ccnc(OC)c1)C1C=CS(=O)(=O)C1)n1cc(-c2ccccc2)cn1 (stereo not drawn) [I-357, N-(1,1-dioxo-2,3-dihydro-1lambda6-thiophen-3-yl)-3-methoxy-N-[(2-methoxypyridin-4-yl)methyl]-2-(4-phenyl-1H-pyrazol-1-yl)propanamide] | 10 to 50
12 | CC(C)(O)c1cc(CN(C(=O)Cc2ccc(-c3cccc(Cl)c3)cc2F)C2C=CS(=O)(=O)C2)ccn1 (stereo not drawn) [I-70, 2-{3′-chloro-3-fluoro-[1,1′-biphenyl]-4-yl}-N-(1,1-dioxo-2,3-dihydro-1lambda6-thiophen-3-yl)-N-{[2-(2-hydroxypropan-2-yl)pyridin-4-yl]methyl}acetamide] | < 0.5
13 | COc1cc(CN(C(=O)C(OCC2CCCN(S(C)(=O)=O)C2)c2ccc(-c3ccc(F)c(F)c3)cc2F)[C@@H]2C=CS(=O)(=O)C2)ccn1 (stereo partly drawn) [I-809, N-[(3R)-1,1-dioxo-2,3-dihydro-1lambda6-thiophen-3-yl]-2-[(1-methanesulfonylpiperidin-3-yl)methoxy]-N-[(2-methoxypyridin-4-yl)methyl]-2-{3,3′,4′-trifluoro-[1,1′-biphenyl]-4-yl}acetamide] | 0.5 to 5
14 | O=C(Cc1ccc(S(F)(F)(F)(F)F)cc1)N(Cc1ccnc(C2(O)COC2)c1)C1C=CS(=O)(=O)C1 (stereo not drawn) [I-633, N-(1,1-dioxo-2,3-dihydro-1lambda6-thiophen-3-yl)-N-{[2-(3-hydroxyoxetan-3-yl)pyridin-4-yl]methyl}-2-[4-(pentafluoro-lambda6-sulfanyl)phenyl]acetamide] | 10 to 50

More lines, now with the values ahead:

Row | IC50 [µM] | SMILES
15 | < 0.5 | COC(C(=O)N(Cc1ccnc(C(C)(C)O)c1)C1C=CS(=O)(=O)C1)c1ccc(S(F)(F)(F)(F)F)cc1 (single isomer, unassigned) [I-664, (2R*)-N-[(3R**)-1,1-dioxo-2,3-dihydro-1lambda6-thiophen-3-yl]-N-{[2-(2-hydroxypropan-2-yl)pyridin-4-yl]methyl}-2-methoxy-2-[4-(pentafluoro-lambda6-sulfanyl)phenyl]acetamide]
16 | > 50 | COc1ccc(CC(=O)N(Cc2ccncc2)C2C=CS(=O)(=O)C2)cc1OC(F)F (stereo not drawn) [I-697, 2-[3-(difluoromethoxy)-4-methoxyphenyl]-N-(1,1-dioxo-2,3-dihydro-1lambda6-thiophen-3-yl)-N-[(pyridin-4-yl)methyl]acetamide]
17 | 10 to 50 | O=C(Cn1cc2ccc(C(F)F)cc2n1)N(Cc1ccncc1)C1C=CS(=O)(=O)C1 (stereo not drawn) [I-592, 2-[6-(difluoromethyl)-2H-indazol-2-yl]-N-(1,1-dioxo-2,3-dihydro-1lambda6-thiophen-3-yl)-N-[(pyridin-4-yl)methyl]acetamide]
18 | 5 to 10 | CCC(C)c1ccc(CC(=O)N(Cc2ccncc2)C2C=CS(=O)(=O)C2)cc1 (stereo not drawn) [I-216, 2-[4-(butan-2-yl)phenyl]-N-(1,1-dioxo-2,3-dihydro-1lambda6-thiophen-3-yl)-N-[(pyridin-4-yl)methyl]acetamide]
19 | 10 to 50 | COc1cc(CN(C(=O)C(OCC#N)c2ccc(-c3ccc(F)c(F)c3)cc2F)[C@@H]2C=CS(=O)(=O)C2)ccn1 (single isomer, unassigned) [I-692, (2R*)-2-(cyanomethoxy)-N-[(3R)-1,1-dioxo-2,3-dihydro-1lambda6-thiophen-3-yl]-N-[(2-methoxypyridin-4-yl)methyl]-2-{3,3′,4′-trifluoro-[1,1′-biphenyl]-4-y]}acetamide]
20 | 10 to 50 | O=C(Cn1cc(-c2ccccc2)cn1)N(Cc1ccncc1)C1C=CS(=O)(=O)C1 (single isomer, unassigned) [I-281]
21 | > 50 | O=C(NC(Cc1c[nH]c2ccccc12)C(=O)N(Cc1ccncc1)C1C=CS(=O)(=O)C1)c1ccc(F)cc1 (single isomer, unassigned) [I-561]
22 | > 50 | Cc1ccnn1-c1ccc(CC(=O)N(Cc2ccncc2)C2C=CS(=O)(=O)C2)cc1 (stereo not drawn) [I-441, N-(1,1-dioxo-2,3-dihydro-1lambda6-thiophen-3-yl)-2-[4-(5-methyl-1H-pyrazol-1-yl)phenyl]-N-[(pyridin-4-yl)methyl]acetamide]
23 | > 50 | O=C(Cc1ccc2c(c1)COCC2)N(Cc1ccncc1)C1C=CS(=O)(=O)C1 (stereo not drawn) [I-642, 2-(3,4-dihydro-1H-2-benzopyran-7-yl)-N-(1,1-dioxo-2,3-dihydro-1lambda6-thiophen-3-yl)-N-[(pyridin-4-yl)methyl]acetamide]
24 | > 50 | N#Cc1ccc2c(CC(=O)N(Cc3ccncc3)C3C=CS(=O)(=O)C3)c[nH]c2c1 (stereo not drawn) [I-546, 2-(6-cyano-1H-indol-3-yl)-N-(1,1-dioxo-2,3-dihydro-1lambda6-thiophen-3-yl)-N-[(pyridin-4-yl)methyl]acetamide]
25 | > 50 | COc1cc(CN(C(=O)C(OCCS(C)(=O)=O)c2ccc(-c3ccc(F)c(F)c3)cc2F)[C@@H]2C=CS(=O)(=O)C2)ccn1 (single isomer, unassigned) [I-710, (2R*)-N-[(3R)-1,1-dioxo-2,3-dihydro-1lambda6-thiophen-3-yl]-2-(2-methanesulfonylethoxy)-N-[(2-methoxypyridin-4-yl)methyl]-2-{3,3′,4′-trifluoro-[1,1′-biphenyl]-4-yl}acetamide]
26 | > 50 | CC(C)C(=O)NC(Cc1c[nH]c2ccccc12)C(=O)N(Cc1ccncc1)C1C=CS(=O)(=O)C1 (stereo not drawn) [I-559, N-(1,1-dioxo-2,3-dihydro-1lambda6-thiophen-3-yl)-3-(1H-indol-3-yl)-2-(2-methylpropanamido)-N-[(pyridin-4-yl)methyl]propanamide]
27 | 0.5 to 5 | COC(C(=O)N(Cc1ccncc1)C1C=CS(=O)(=O)C1)c1ccc(-c2ccc(F)cc2)cc1 (stereo not drawn) [I-144, N-(1,1-dioxo-2,3-dihydro-1lambda6-thiophen-3-yl)-2-{4′-fluoro-[1,1′-biphenyl]-4-yl}-2-methoxy-N-[(pyridin-4-yl)methyl]acetamide]
28 | < 0.5 | COc1cc(CN(C(=O)C2CNc3cc(-c4ccc(F)cc4)ccc32)[C@@H]2C=CS(=O)(=O)C2)ccn1 (stereo partly drawn) [I-53, N-(1,1-dioxido-2,3-dihydrothiophen-3-yl)-6-(4-fluorophenyl)-N-((2-methoxypyridin-4-yl)methyl)indoline-3-carboxamide]
29 | > 50 | O=C(Cc1c[nH]c2cc(Cl)ccc12)N(Cc1ccncc1)C1C=CS(=O)(=O)C1 (stereo not drawn) [I-417, 2-(6-chloro-1H-indol-3-yl)-N-(1,1-dioxo-2,3-dihydro-1lambda6-thiophen-3-yl)-N-[(pyridin-4-yl)methyl]acetamide]
30 | 5 to 10 | O=C(Cn1ncc2cc(C(F)(F)F)ccc21)N(Cc1ccncc1)C1C=CS(=O)(=O)C1 (stereo not drawn) [I-590, N-(1,1-dioxo-2,3-dihydro-1lambda6-thiophen-3-yl)-N-[(pyridin-4-yl)methyl]-2-[5-(trifluoromethyl)-1H-indazol-1-yl]acetamide]
